Square brackets hold non-standard residues; d marks the D form. Peptide text beside a SMILES is read from it. Trp(5-OH) = N[C@@H](Cc1c[nH]c2ccc(O)cc12)C(=O)O; NMeW = CN[C@@H](Cc1c[nH]c2ccccc12)C(=O)O; Dip = N[C@H](C(=O)O)C(c1ccccc1)c1ccccc1; β3hW = N[C@H](CC(=O)O)Cc1c[nH]c2ccccc12; Tic = O=C(O)[C@@H]1Cc2ccccc2CN1; 3Thi = N[C@@H](Cc1ccsc1)C(=O)O; Cha = N[C@@H](CC1CCCCC1)C(=O)O; Orn = NCCC[C@H](N)C(=O)O

Inhibition and Activity data for 20 compounds are collected here from ChEMBL document CHEMBL1146940, “Structure-activity relationship study between Ornithyl-Proline and Lysyl-Proline based tripeptidomimics as angiotensin-converting enzyme inhibitors” (Bioorg Med Chem Lett, 2006).

In assay [1] the target is Angiotensin-converting enzyme (Bos taurus) (UniProt P12820). Description: Inhibition of ACE in bovine kidney. The conditions noted are these: concentration not given here. Details: concentration or dose not given beside the values.
For assay [2] the target is unchanged. Description: Activity against ACE in bovine kidney.

Sequence of Angiotensin-converting enzyme (Bos taurus) (P12820 whole entry, looked up): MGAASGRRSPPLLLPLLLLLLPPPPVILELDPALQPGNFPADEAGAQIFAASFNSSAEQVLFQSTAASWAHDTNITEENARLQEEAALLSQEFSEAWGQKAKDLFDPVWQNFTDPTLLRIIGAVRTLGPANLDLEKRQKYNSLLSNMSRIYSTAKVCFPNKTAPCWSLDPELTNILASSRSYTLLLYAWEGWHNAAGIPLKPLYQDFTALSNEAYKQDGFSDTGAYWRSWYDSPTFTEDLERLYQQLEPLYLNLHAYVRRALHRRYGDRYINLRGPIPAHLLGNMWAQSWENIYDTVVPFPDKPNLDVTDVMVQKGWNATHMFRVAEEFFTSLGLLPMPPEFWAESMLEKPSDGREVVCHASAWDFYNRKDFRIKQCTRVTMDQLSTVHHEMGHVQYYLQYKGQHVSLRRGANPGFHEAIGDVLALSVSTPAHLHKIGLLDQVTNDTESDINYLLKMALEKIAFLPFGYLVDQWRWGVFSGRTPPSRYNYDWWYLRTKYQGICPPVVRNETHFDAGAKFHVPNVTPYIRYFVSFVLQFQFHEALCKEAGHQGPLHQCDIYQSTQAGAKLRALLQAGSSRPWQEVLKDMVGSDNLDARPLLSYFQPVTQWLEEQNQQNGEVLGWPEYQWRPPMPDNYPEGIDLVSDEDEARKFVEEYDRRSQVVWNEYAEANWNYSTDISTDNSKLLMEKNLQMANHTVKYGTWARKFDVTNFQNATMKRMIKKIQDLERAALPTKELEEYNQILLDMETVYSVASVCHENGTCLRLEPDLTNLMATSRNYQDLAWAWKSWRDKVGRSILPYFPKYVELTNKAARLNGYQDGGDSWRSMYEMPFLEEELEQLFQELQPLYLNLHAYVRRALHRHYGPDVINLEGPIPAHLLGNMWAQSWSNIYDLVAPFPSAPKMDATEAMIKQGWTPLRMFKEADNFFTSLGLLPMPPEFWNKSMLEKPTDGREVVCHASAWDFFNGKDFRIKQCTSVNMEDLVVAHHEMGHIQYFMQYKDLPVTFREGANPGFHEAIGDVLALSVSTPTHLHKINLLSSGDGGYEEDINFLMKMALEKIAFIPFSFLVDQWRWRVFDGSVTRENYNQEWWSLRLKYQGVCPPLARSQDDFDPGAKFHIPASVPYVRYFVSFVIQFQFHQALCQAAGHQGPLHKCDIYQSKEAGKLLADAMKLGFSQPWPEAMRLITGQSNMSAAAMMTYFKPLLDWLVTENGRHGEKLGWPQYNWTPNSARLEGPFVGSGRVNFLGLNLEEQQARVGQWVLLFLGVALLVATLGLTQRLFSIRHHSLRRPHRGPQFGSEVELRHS

In assay [1], `NCCC[C@H](NC(=O)C[C@@H](N)Cc1ccccc1)C(=O)N1CCC[C@H]1C(=O)O` registered an inhibition of 31.7%. For the same compound, the Activity in assay [2] was 9.21 mU/ml.
`NCCC[C@H](NC(=O)CCc1nc2ccccc2[nH]1)C(=O)N1CCC[C@H]1C(=O)O` displayed an inhibition in assay [1] of 65.5%. The same compound came in with an Activity in assay [2] of 4.7 mU/ml.
The corresponding values for `NCCCC[C@H](NC(=O)[C@@H](N)Cc1ccsc1)C(=O)N1CCC[C@H]1C(=O)O` (H-[3Thi]-Lys-Pro-OH) are 13.3% and 11.7 mU/ml.
The like results for `NCCC[C@H](NC(=O)[C@@H](N)Cc1c[nH]c2ccc(O)cc12)C(=O)N1CCC[C@H]1C(=O)O` (H-[Trp(5-OH)]-[Orn]-Pro-OH) were, in that order, 68.8% and 4.2 mU/ml.
The compound `NCCCC[C@H](NC(=O)C[C@@H](N)Cc1ccccc1)C(=O)N1CCC[C@H]1C(=O)O` registered an inhibition in assay [1] of 22.6%. This compound also yielded an Activity in assay [2] of 10.4 mU/ml.
The compound `NCCC[C@H](NC(=O)C[C@@H](N)Cc1c[nH]c2ccccc12)C(=O)N1CCC[C@H]1C(=O)O` (H-[β3hW]-[Orn]-Pro-OH) returned an inhibition in assay [1] of 9.13%. Besides, the Activity in assay [2] came out at 12.2 mU/ml.
Regarding `CN[C@@H](Cc1c[nH]c2ccccc12)C(=O)N[C@@H](CCCCN)C(=O)N1CCC[C@H]1C(=O)O` (H-[NMeW]-Lys-Pro-OH), in assay [1], the inhibition came to 39.1%. The Activity in assay [2] is 8.2 mU/ml.
In turn, `NCCCC[C@H](NC(=O)C[C@@H](N)Cc1c[nH]c2ccccc12)C(=O)N1CCC[C@H]1C(=O)O` (H-[β3hW]-Lys-Pro-OH) registered an inhibition in assay [1] of 30.2%. The Activity in assay [2] is 9.4 mU/ml.
Consider `NCCCC[C@H](NC(=O)[C@@H]1Cc2ccccc2CN1)C(=O)N1CCC[C@H]1C(=O)O` (H-[Tic]-Lys-Pro-OH), for which, in assay [1], the inhibition was 19.4%. In assay [2], this compound came in with an Activity of 10.8 mU/ml.
Regarding `NCCC[C@H](NC(=O)[C@@H](N)Cc1ccsc1)C(=O)N1CCC[C@H]1C(=O)O` (H-[3Thi]-[Orn]-Pro-OH), in assay [1], the inhibition turned out to be 74.7%. Moreover, the Activity in assay [2] came to 3.41 mU/ml.
Turning to `CN[C@@H](Cc1c[nH]c2ccccc12)C(=O)N[C@@H](CCCN)C(=O)N1CCC[C@H]1C(=O)O` (H-[NMeW]-[Orn]-Pro-OH), the inhibition in assay [1] is 63.6%. In assay [2], this compound showed an Activity of 4.88 mU/ml.
The like results for `NCCC[C@H](NC(=O)[C@@H](N)C(c1ccccc1)c1ccccc1)C(=O)N1CCC[C@H]1C(=O)O` (H-[Dip]-[Orn]-Pro-OH) were, in that order, 27.7% and 9.74 mU/ml.
The corresponding values for `NCCCC[C@H](NC(=O)CCc1ccc(O)cc1)C(=O)N1CCC[C@H]1C(=O)O` are 29.3% and 9.52 mU/ml.
The corresponding values for `NCCC[C@H](NC(=O)[C@@H](N)Cc1ccco1)C(=O)N1CCC[C@H]1C(=O)O` are 35.6% and 8.67 mU/ml.
In assay [1], `NCCCC[C@H](NC(=O)[C@@H](N)CC1CCCCC1)C(=O)N1CCC[C@H]1C(=O)O` (H-[Cha]-Lys-Pro-OH) registered an inhibition of 3.71%. The same compound gave an Activity in assay [2] of 13.1 mU/ml.
Take `NCCC[C@H](NC(=O)[C@@H]1Cc2ccccc2CN1)C(=O)N1CCC[C@H]1C(=O)O` (H-[Tic]-[Orn]-Pro-OH): the inhibition in assay [1] is 25%. This compound registered an Activity in assay [2] of 10.1 mU/ml.
Compound `NCCC[C@H](NC(=O)[C@@H](N)CC1CCCCC1)C(=O)N1CCC[C@H]1C(=O)O` (H-[Cha]-[Orn]-Pro-OH) had an inhibition in assay [1] of 30.8%. In assay [2], this compound had an Activity of 9.32 mU/ml.
The corresponding values for `NCCCC[C@H](NC(=O)[C@@H](N)C(c1ccccc1)c1ccccc1)C(=O)N1CCC[C@H]1C(=O)O` (H-[Dip]-Lys-Pro-OH) are 33.8% and 8.91 mU/ml.
For `NCCC[C@H](NC(=O)CCc1ccc(O)cc1)C(=O)N1CCC[C@H]1C(=O)O`, in assay [1], the inhibition came to 23.8%. The compound further returned an Activity in assay [2] of 10.3 mU/ml.
The like results for `NCCCC[C@H](NC(=O)[C@@H](N)Cc1ccco1)C(=O)N1CCC[C@H]1C(=O)O` were, in that order, 10.1% and 12.1 mU/ml.

By inhibition is commonly meant the share of the control response that was lost under treatment.
